Data from publication PMC6155437 (Molecules : A Journal of Synthetic Chemistry and Natural …, 2017).
“Also recorded” adds a separate entry of the source.

Key:
Type in all cases: in vitro ADME
CYP2C9 = target: T1, CYP2C9 (Homo sapiens, UniProt P11712); assay: CYP2C9 diclofenac 4′-hydroxylase inhibition in human liver microsomes
T1 construct: tissue Corning Life Sciences; host or cells: pooled human liver microsomes (150 donors)
Procedure: After a 3-min pre-incubation at 37 °C, the reactions were initiated by addition of NADPH and incubation proceeded for 15 min at 37 °C in a shaking water bath. […] The incubation mixtures were centrifuged (13,000× g, 4 min, 4 °C). All assays were performed in triplicate and mean values were used in calculations.
Each reaction was initiated by adding the seven-CYP probe substrate cocktail.
The reactions were initiated by addition of NADPH at 37 °C and stopped after 10 min by placing the incubation tubes on ice and adding 100 μL of ice-cold methanol containing an internal standard (d9-1-hydroxybufuralol). The incubation mixtures were centrifuged (13,000× g, 4 min, 4 °C) and then 50 μL of the supernatant was diluted with 50 μL of water. Aliquots (5 μL) of the diluted supernatants were analyzed by LC-MS/MS.
The metabolites formed from CYP substrates were quantified simultaneously by a LC-MS/MS method described previously. The ESI source settings in positive-ion mode for metabolite ionization were: capillary voltage, 4200 V; vaporizer temperature, 350 °C; capillary temperature, 330 °C; sheath gas pressure, 35 psi; and auxiliary gas pressure, 15 psi. Quantification was performed by selected reaction monitoring (SRM) of the [M + H]^+ ion and the related product ion for each metabolite: acetaminophen, 152.1 > 110.3; N-desethylamodiaquine, 328.1 > 283.0; 7-hydroxycoumarin, 163.0 > 107.2; 4-hydroxybupropion, 256.1 > 238.0; 4′-hydroxydiclofenac, 312.0 > 231.1; 4′-hydroxy-mephenytoin; 235.1 > 150.1; 1′-hydroxybufuralol, 278.1 > 186.1; 1′-hydroxymidazolam, 341.9 > 324.0; ^13C2,^15N-acetaminophen 155.1 > 111.2; and d9-1′-hydroxybufuralol, 287.2 > 187.0. Analytical data were processed using Xcalibur software (version 2.1, Thermo Scientific).
(§1) The apparent kinetic parameters for inhibitory potential (Ki and kinact values) and inhibition mode were estimated from the fitted curves using the Enzyme Kinetics program (ver. 1.1; Systat Software Inc., San Jose, CA, USA).

UGT1A4 = target: T2, UGT1A4 (Homo sapiens, UniProt P22310); assay: UGT1A4 trifluoperazine N-glucuronidation inhibition in human liver microsomes; conditions: at 50 µM
T2 construct: pooled human liver microsomes (0.2 mg/mL), 5 mM UDPGA; tissue Corning Life Sciences; host or cells: pooled human liver microsomes (150 donors)
T2 sequence (P22310 29-534): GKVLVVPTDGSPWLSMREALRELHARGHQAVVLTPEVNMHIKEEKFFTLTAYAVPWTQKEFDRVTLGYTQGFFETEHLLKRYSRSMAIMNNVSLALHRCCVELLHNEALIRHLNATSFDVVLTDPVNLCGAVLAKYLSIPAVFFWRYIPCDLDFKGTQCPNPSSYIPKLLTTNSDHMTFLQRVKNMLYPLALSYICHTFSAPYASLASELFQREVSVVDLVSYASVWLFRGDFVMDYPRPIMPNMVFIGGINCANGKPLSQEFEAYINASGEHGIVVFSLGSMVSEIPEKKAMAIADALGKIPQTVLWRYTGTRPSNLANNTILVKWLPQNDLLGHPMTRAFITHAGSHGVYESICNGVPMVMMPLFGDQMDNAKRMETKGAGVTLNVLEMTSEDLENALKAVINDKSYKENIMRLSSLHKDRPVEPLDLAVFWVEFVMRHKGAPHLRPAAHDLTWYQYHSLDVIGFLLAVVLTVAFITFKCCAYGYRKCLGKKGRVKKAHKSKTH
Procedure: (§2) After 3 min of pre-incubation at 37 °C, the reactions were initiated by addition of UDPGA; incubation continued for 60 min at 37 °C in a shaking water bath. The reaction was stopped by placing the tubes on ice and adding 50 µL ice-cold acetonitrile containing internal standards (propofol glucuronide for chenodeoxycholic acid 24-acyl-β-glucuronide and mycophenolic acid glucuronide, and meloxicam for SN-38 glucuronide, trifluoperazine glucuronide, N-acetylserotonin β-D-glucuronide, and naloxone 3-β-D-glucuronide). The incubation mixtures were centrifuged (13,000× g, 4 min, 4 °C). All assays were performed in triplicate and average values were used in calculations.
(§3) The metabolites formed from the six UGT cocktail substrates were measured simultaneously using the LC-MS/MS method. The ESI source settings in both positive- and negative-ion modes for metabolite ionization were: capillary voltage, 4200 V; vaporizer temperature, 350 °C; capillary temperature, 330 °C; sheath gas pressure, 35 psi; and auxiliary gas pressure, 15 psi. […] Data were processed using Xcalibur software.
as §1

UGT1A6 = target: T3, UGT1A6 (Homo sapiens, UniProt P19224); assay: UGT1A6 N-acetylserotonin glucuronidation inhibition in human liver microsomes; conditions: at 50 µM
T3 construct: pooled human liver microsomes (0.2 mg/mL), 5 mM UDPGA; tissue Corning Life Sciences; host or cells: pooled human liver microsomes (150 donors)
T3 sequence (P19224 27-532): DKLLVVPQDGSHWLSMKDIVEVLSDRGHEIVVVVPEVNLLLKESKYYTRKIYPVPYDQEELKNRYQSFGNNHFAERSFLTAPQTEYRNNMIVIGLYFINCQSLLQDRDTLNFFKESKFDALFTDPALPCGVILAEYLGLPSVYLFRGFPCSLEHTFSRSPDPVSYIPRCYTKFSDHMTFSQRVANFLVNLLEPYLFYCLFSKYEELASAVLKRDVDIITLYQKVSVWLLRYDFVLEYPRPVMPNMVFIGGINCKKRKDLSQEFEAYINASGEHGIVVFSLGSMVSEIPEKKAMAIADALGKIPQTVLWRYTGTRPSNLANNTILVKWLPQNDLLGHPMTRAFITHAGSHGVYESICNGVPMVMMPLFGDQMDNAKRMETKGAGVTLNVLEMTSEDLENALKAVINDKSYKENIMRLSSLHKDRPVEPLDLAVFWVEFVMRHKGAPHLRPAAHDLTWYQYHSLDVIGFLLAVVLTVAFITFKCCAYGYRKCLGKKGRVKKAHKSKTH
Procedure: as §2, §3, §1

T1 sequence (P11712 whole entry): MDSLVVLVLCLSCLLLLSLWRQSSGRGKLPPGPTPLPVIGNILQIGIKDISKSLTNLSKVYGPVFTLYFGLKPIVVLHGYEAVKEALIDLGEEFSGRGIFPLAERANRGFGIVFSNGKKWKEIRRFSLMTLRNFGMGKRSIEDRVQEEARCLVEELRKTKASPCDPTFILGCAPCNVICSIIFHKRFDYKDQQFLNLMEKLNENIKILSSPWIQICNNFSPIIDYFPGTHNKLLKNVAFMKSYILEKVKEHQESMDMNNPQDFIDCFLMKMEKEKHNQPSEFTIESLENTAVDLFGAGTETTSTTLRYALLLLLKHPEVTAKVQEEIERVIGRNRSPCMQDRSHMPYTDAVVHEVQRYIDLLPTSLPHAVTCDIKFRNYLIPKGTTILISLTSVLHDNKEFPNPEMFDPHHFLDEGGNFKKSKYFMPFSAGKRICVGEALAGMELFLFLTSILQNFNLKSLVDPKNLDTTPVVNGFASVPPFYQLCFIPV

## O=C(c1cccc2ccccc12)c1cn(CCCCCF)c2ccccc12 [AM-2201, 1-(5-fluoropentyl-1H-indol-3-yl)-(naphthalene-1-yl)methanone]
CYP2C9
  Ki: 3.9 µM
CYP2C9; CYP2C9 diclofenac 4′-hydroxylation
  Inhibition Mode: competitively inhibited; also recorded: competitive
CYP2C9; IC50 (μM) No Preincubation, Diclofenac 4′-hydroxylase, CYP2C9, human liver microsomes, 10 μM diclofenac
  IC50: 11.9 µM
CYP2C9; IC50 (μM) With Preincubation, Diclofenac 4′-hydroxylase, CYP2C9, 30 min preincubation with NADPH
  IC50: 11.9 µM
CYP2C9; IC50, CYP2C9-catalyzed diclofenac 4′-hydroxylation, abstract
  IC50: 3.9 µM
UGT1A4
  inhibition of UGT1A4-catalyzed trifluoperazine N-glucuronidation: negligibly inhibited
UGT1A6
  inhibition of UGT1A6-catalyzed N-acetylserotonin glucuronidation: negligibly inhibited
